The source of these data is paper PMC13415951 (Journal of Experimental Botany, 2026).

Positions count from the first letter of the chain named.

One data set concerns B. distachyon Bd21-3. Set-up: species or system Brachypodium distachyon. As to conditions: in vivo.
Data set [1] deals with T1, OsUGT79 Q202A (Oryza sativa subsp. japonica, UniProt Q7XT97, Q202A).
T1 sequence (Q7XT97 1-466 Q202A): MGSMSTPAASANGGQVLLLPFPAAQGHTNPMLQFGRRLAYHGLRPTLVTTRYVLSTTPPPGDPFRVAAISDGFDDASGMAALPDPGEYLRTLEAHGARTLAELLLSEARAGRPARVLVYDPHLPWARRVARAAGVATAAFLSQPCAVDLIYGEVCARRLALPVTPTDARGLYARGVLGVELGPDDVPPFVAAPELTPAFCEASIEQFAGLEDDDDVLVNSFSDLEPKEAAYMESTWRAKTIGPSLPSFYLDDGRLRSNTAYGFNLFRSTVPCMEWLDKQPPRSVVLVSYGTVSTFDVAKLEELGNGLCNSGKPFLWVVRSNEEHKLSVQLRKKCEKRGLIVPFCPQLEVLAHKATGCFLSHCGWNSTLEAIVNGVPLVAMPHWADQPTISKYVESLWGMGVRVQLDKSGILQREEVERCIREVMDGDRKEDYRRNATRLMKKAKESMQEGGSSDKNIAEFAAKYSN
The data set is described as follows: biochemical. The data set is classed as biochemical.

Data set [2] addresses T2, OsUGT79 H122A/L123A/Q202A (Oryza sativa subsp. japonica, UniProt Q7XT97, H122A/L123A/Q202A).
T2 sequence (Q7XT97 1-466 H122A/L123A/Q202A): T1 sequence (Q7XT97 1-466 Q202A) with H122A, L123A
The data set is classed as biochemical.

A further data set deals with animal cells. Further details: method as in Gruber-Dorninger et al., 2017. Conditions: in vitro assays; ref Gruber-Dorninger et al., 2017; cited from earlier work.
Another data set relates to piglets. Set-up: method as in Rotter et al., 1992. As to conditions: ref Rotter et al., 1992; cited from earlier work.
Data set [3] concerns B. distachyon line OE-10R14. Further details: species or system Brachypodium distachyon. Conditions: in vivo.
The target of data set [4] is T1, OsUGT79 Q202A. The data set is classed as biochemical.
A further data set deals with Heliothis zea larvae. Set-up: method as in Dowd et al., 1989. As to conditions: ref Dowd et al., 1989; cited from earlier work.
Data set [5] concerns the target T3, OsUGT79 (Oryza sativa subsp. japonica, UniProt Q7XT97).
T3 construct: made in house; host or cells: E. coli
T3 sequence (Q7XT97 1-466): T1 sequence (Q7XT97 1-466 Q202A) with A202Q
Nature of the data set: biochemical. The data set is classed as biochemical.

Another data set deals with T4, HvUGT13248 (Hordeum vulgare subsp. vulgare, UniProt M0Y4P1).
T4 sequence (M0Y4P1 1-475): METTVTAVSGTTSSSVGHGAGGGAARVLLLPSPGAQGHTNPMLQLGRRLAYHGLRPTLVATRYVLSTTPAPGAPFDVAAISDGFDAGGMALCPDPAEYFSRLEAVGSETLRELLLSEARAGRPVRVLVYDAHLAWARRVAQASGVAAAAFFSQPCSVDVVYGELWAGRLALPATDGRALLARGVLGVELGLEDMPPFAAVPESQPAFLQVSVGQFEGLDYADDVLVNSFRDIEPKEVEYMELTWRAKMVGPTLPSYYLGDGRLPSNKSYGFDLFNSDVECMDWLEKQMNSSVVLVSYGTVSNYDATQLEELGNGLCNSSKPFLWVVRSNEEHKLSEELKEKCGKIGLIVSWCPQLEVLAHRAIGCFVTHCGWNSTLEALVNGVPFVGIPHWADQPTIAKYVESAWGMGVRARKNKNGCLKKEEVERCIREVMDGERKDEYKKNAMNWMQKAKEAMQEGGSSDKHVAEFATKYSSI
Nature of the data set: biochemical. Further details: made in house; host or cells: E. coli. The data set is classed as biochemical.

Data set [6] has as its target T3, OsUGT79. Nature of the data set: biochemical. The data set is classed as biochemical. The source holds these as a separate data set.
Data set [7] deals with wheat cultivar Apogee seedlings. Set-up: species or system Triticum aestivum. Conditions: in vivo.
Data set [8] relates to human glucuronosyltransferases in liver microsomes. Further details: method as in Woelflingseder et al., 2019. As to conditions: ref Woelflingseder et al., 2019; cited from earlier work.
[9] abbreviates: read-out: Glucosylation rate of DON, percentage of the control.

What is called Ki is a measure of affinity in units of concentration, obtained from inhibition or displacement. Consider `CC1(C)CCC[C@]2(C)[C@@H]3[C@H]1[C@@H](O)[C@@]2(C)C[C@H]3O` [CUL, culmorin], for which, in the data set on B. distachyon Bd21-3, the “Effect of CUL alone on root length” value is “did not elicit any significant effect” and the “Effect of CUL with 2 mg l^−1 DON on root length” value is “clear dose-dependent synergistic effect”. Moreover, on OsUGT79 Q202A [1], the “K iu of CUL (uncompetitive inhibition, DON as variable substrate)” value was 56 µM and the Ki was found to be 16 µM. Besides, the “Specific activity (glucoside formation)” value in data set [2] came out at 2.89 ± 0.10 nmol/min/mg. The “Toxicity to animal cells” value in the data set with animal cells is recorded as “low toxicity”. Moreover, the “Effect on growth of piglets” value with piglets is “no negative effects”. Moreover, in data set [3], the “Effect of addition of CUL to 50 mg l^−1 DON on root length” value is reported as “severe breakdown of resistance to DON”. At OsUGT79 Q202A [4], the “Specific activity (glucoside formation)” value was determined as 2.23 ± 0.08 nmol/min/mg. Also, in the data set on Heliothis zea larvae, the “Effect on growth of Heliothis zea larvae” value was “no negative effects” and the “Effect on mortality of Heliothis zea larvae in combination with DON” value was “significantly increases mortality”. At OsUGT79 [5], the “K iu of CUL (uncompetitive inhibition, DON as variable substrate)” value was determined as 208 µM; the “K iu of CUL (uncompetitive inhibition, UDP-glucose as variable substrate)” value is 124 µM; the Ki amounted to 146 µM. In addition, on HvUGT13248, the “Increase of apparent KM of DON” value was around 10 fold; the “K iu of CUL (uncompetitive inhibition, UDP-glucose as variable substrate)” value is recorded as 91 µM; the Ki worked out at 56 µM. Moreover, at OsUGT79 [6], the “CUL glucosylation rate compared with DON” value is 1–2% and the “Specific activity (glucoside formation)” value was 1.85 ± 0.05 nmol/min/mg. Moreover, on OsUGT79 [6] (setting [9]), the remaining activity at 25 µM was 64 ± 3% and the remaining activity at 125 µM worked out at 33 ± 4%. In data set [7], the “Effect of CUL applied together with DON on root length” value is recorded as “significantly increased the degree of reduction of root length”; the “Effect on primary and total root length” value was “did not cause a significant change”. Further, the “Effect on DON-glucuronidation” value in data set [8] is reported as “suppresses DON-glucuronidation”.
